# In patent US12083157B2, “Use of polylysine dendrimers in the prevention and management of acne-prone skin and acneic skin” (Lucas Meyer Cosmetics, priority 2019, dated 2024):
# Values joined by “and” are separate entries in the source; they are usually repeats but may differ in a detail not shown here. Equal values may be shown once.
# Key:
# IL-8 = assay: IL1-α-induced IL-8 production in normal human dermal fibroblasts (ELISA); format: cell-based
# Experimental: There is evidence that C. acnes is involved in invoking an inflammatory response. […] Therefore, the effect of the G2 dendrimer on inflammation in normal human dermis fibroblasts (NHDF) was assessed. NHDF were isolated from human dermis and maintained in DMEM containing 10% fetal calf serum, 1% antibiotics (penicillin/streptomycin) and 1% L-glutamine at 37° C. under 5% CO2 and 95% humidity.
# IL-8 mediates inflammatory reactions in the skin through the recruitment of neutrophils and other immune cells to invade injured or inflamed tissue. IL-8 secretion is inducible in cultured human dermal fibroblasts following activation with the pro-inflammatory cytokine IL-la (Larsen, et al. (1989) Immunology 68(1):31-6). Accordingly, non-confluent NHDF cells were treated with IL1-α (0.1 ng/mL), as an inducer of IL-8 production, in the presence or absence of G2 dendrimer (10^−9M, 10^−8M, 10^−7M or 10^−6 M) or hydrocortisone (0.05 μg/mL) as the positive anti-inflammatory control. IL-8 release from fibroblasts was determined by enzyme-linked immunosorbent assay (ELISA).
# [1] = test system: C. acnes acneic strain RT5 (phylotype IA1); assay: Membrane fluidity of C. acnes strain RT5; format: cell-based, Cutibacterium acnes; settings: 6·10^−6M, 72 h of incubation
# C. acnes = assay: Inhibition of C. acnes proliferation, comparison with linear polylysine; format: cell-based, Cutibacterium acnes
# TLR2 = TLR2 immunostaining in human skin explants challenged with C. acnes; format: cell-based; settings: topical application at 2 and 5 ppm
# Experimental: (§1) Skin Treatment. Fifteen human skin specimens were obtained from patients undergoing plastic surgery (Caucasian women, 26 years old). Skin explants were maintained in culture for 8 days. A 1-hour treatment with G2 dendrimer (2 and 5 ppm) was concomitant with application of freeze-dried C. acnes (30 μL) at days 0, 1, 4 and 6 (FIG. 2). At day 8, explants were fixed and embedded in paraffin. Thick sections of 5 μm were stained with Masson's Trichrome stain or an anti-TLR2 antibody.
# Immunostaining of TLR2 TLR2 is known to mediate the inflammatory response of skin to acne (Kim, et al. (2002) 1 Immunol. 169(3):1535-41; McInturff & Kim (2005) Semin. Cutan. Med. Surg. 24(2):73-8). Accordingly, TLR2 protein in frozen sections was assessed with an anti-TLR2 (clone TL2.1; Santa Cruz). Sections were incubated with a 1:25 dilution of the anti-TLR2 antibody overnight at 4° C. and antibody binding was subsequently detected with biotin/streptavidin-FITC conjugate. Nuclei were stained with propidium iodide.
# [2] = test system: Cutibacterium acnes acneic strain ribotype 5 (RT5) HL043PA2/HM-514; assay: Biofilm formation on glass slide, strain RT5; format: cell-based; settings: 72 h biofilm
# Experimental: (§2) The Cutibacterium acnes acneic strain ribotype 5 (RT5) HL043PA2/HM-514 and the Cutibacterium acnes non-acneic strain ribotype 6 (RT6) HL110PA3/HM-554 were obtained from BEI Resources American Type Culture Collection (Virginia, United States). These two strains belong to the phylotypes IA1 and II, respectively (McDowell, 2017). Bacteria, stored at −80° C., were initially plated on brain-heart infusion (BHI, BD) agar plates for RT6 strain and on reinforced clostridial medium (RCM) agar plates for RT5 strain, and were incubated under anoxic conditions at 37° C. using a BD GasPack™ System. Colonies were transferred into sterile conical 15-mL tubes (Falcon) containing 12 ml of RCM and after vortexing for homogenization, the falcon tube is completely filled with RCM medium and incubated for 72 h at 37° C. […]
# (§3) After 72 h (biofilm formation), the RCM medium was carefully removed in each well in order to remove planktonic cells. […] Syto 9 was excited at 488 nm and fluorescence emission was detected from 500 to 550 nm. […] Quantitative analyses of images stacks were performed using the COMSTAT software (see Worldwide Website: imageanalysis.dk/) (Heydorn et al., 2000). Maximal and average biofilm thickness (μm) and their biomass volume (μm^3/μm^2) were determined. […]
# [3] = test system: stratum corneum of human skin explants; assay: Keratolytic effect in human skin explants exposed to C. acnes; format: cell-based; settings: explants at day 8
# Experimental: as §1
# Evaluation of Keratolytic Effect. The general morphology and in particular stratum corneum of the explants were analyzed. Images were taken with a Leica Orthoplan microscope equipped with a digital camera (tri-CCD) driven by the acquisition and archiving software Leica IM1000.
# [4] = test system: C. acnes non-acneic strain RT6 (phylotype II); assay: Membrane fluidity of C. acnes strain RT6; format: cell-based, Cutibacterium acnes; settings: 6·10^−6 M, 72 h of incubation
# Experimental: The impact of G2 dendrimer on the membrane fluidity of three bacterial strains of Cutibacterium acnes was tested. Two of the tested strains of C. acnes are “acneic” strains belonging to phylotype IA1 (RT4 and RT5) while the last one is a non-acneic strain (RT6) belonging to phylotype II. Several colonies of RT4, RT5 and RT6 (C. acnes strains) were scrapped and put in reinforced clostridial medium (RMC medium). The tubes were vortexed few seconds and homogenized before to be completely filled out with RMC in order to create anaerobic state. The tubes were then incubated at 37° C. for at least 48 h.
# Bacterial cultures were collected and the OD was taken at 580 nm. After inoculation, the bacteria were sending in microplate and treated or not with G2 dendrimer. After 2 hours in anaerobic chamber, the plate was transferred in microplate reader for 72 h (OD 580 nm with measurement every 30 min). Then, the generation time of the bacteria was analyzed for each C. acnes strains. The G2 Dendrimer was tested at the following concentrations: 6·10^−6M, and 6·10^−7M.
# [5] = test system: adhesion of tritium-labeled C. acnes IP 53117T to keratinocytes (NCTC 2544); assay: C. acnes adhesion to keratinocytes, Method 1 (concomitant, 2 hours); format: cell-based, Cutibacterium acnes; settings: after 2 hours, vs absence of G2 dendrimer
# Experimental: (§4) Keratinocytes were isolated from the human epithelial cell line NCTC 2544 (Neufahrt, et al. (1978) Arch. Dermaol. Res. 256(3):255-60). Culture were maintained with Dulbecco's modified Eagle's medium (DMEM) containing 10% fetal calf serum, 1% antibiotics (penicillin/streptomycin), and 1% L-glutamine at 37° C. under 5% CO2 and 95% humidity.
# To monitor bacterial adhesion, adenine of the IP 53117T bacterial strain (belonging to acneic phylotype IA1) was labeled with tritium and bacterial adhesion to the surface of keratinocytes was determined by counting the radioactivity. • Method 1. […] After incubation for 2 hours (37° C., 5% CO2), cells were washed with phosphate-buffered saline (PBS) to remove non-adherent bacteria. • Method 2. The keratinocytes were pretreated for 24 hours with the G2 dendrimer. Labeled bacteria (2×10^8 microorganisms/mL) was then added to the cell monolayer for 2 hours without prior removal of the G2 dendrimer.
# [6] = Anti-inflammatory effect, comparison with linear polylysine
# IL1-α = IL1-α quantification in culture media of human skin explants (ELISA); format: cell-based
# Experimental: as §1
# Quantification of IL1-α Cytokine. The concentration of IL1-α in the culture media was determined using an ELISA assay kit (Cayman, Ann Arbor, MI). The absorbances were measured using a microplate reader Tecan Infinite M200 Pro, combined with Magellan's software.
# [7] = test system: adhesion of tritium-labeled C. acnes IP 53117T to keratinocytes (NCTC 2544); assay: C. acnes adhesion to keratinocytes, Method 2 (24-hour pretreatment); format: cell-based, Cutibacterium acnes
# Experimental: as §4
# To monitor bacterial adhesion, adenine of the IP 53117T bacterial strain (belonging to acneic phylotype IA1) was labeled with tritium and bacterial adhesion to the surface of keratinocytes was determined by counting the radioactivity. • Method 1. Labeled bacteria (2×10^8 microorganisms/mL) were combined with varying amounts of G2 dendrimer (final concentration between 10^−5M and 6.25×10^−6 M) and deposited on the surface of a monolayer of keratinocytes. After incubation for 2 hours (37° C., 5% CO2), cells were washed with phosphate-buffered saline (PBS) to remove non-adherent bacteria. • Method 2. The keratinocytes were pretreated for 24 hours with the G2 dendrimer. Labeled bacteria (2×10^8 microorganisms/mL) was then added to the cell monolayer for 2 hours without prior removal of the G2 dendrimer.
# [8] = test system: C. acnes acneic strain RT4 (phylotype IA1); assay: Membrane fluidity of C. acnes strain RT4; format: cell-based, Cutibacterium acnes; settings: 6·10^−6M, 72 h of incubation
# [9] = test system: C. acnes strain IP 53117T; assay: Inhibition of C. acnes growth in culture (MIC, 96-well plates); format: cell-based, Cutibacterium acnes; settings: C. acnes strain IP 53117T (phylotype IA1); 24 to 48 hours at 37° C.
# Experimental: The effectiveness of G2 dendrimer for inhibiting the growth of C. acnes in culture was assessed. G2 dendrimer was used at a final concentration ranging between 10^−2 M and 10^−5M. Experiments were performed using C. acnes strain IP 53117T (see FR2844715 A1), a strain known to cause acne. This strain belongs to a ribotype 1 (RT1) from phylotype 1A1 and is thus an acneic strain.
# Bacteria (10^8 CFU/ml) were inoculated in 96-well plates containing a range of G2 dendrimer concentrations.
# [10] = test system: Cutibacterium acnes non-acneic strain ribotype 6 (RT6) HL110PA3/HM-554; assay: Biofilm formation on glass slide, strain RT6; format: cell-based; settings: 72 h biofilm
# Experimental: as §2, §3
molecule,measurement,setting,value
"C[C@]12CCC(=O)C=C1CC[C@@H]1[C@@H]2[C@@H](O)C[C@@]2(C)[C@H]1CC[C@]2(O)C(=O)CO [hydrocortisone, reference compound]",decrease of IL-8 production,"IL-8; NHDF, IL1-α 0.1 ng/mL, hydrocortisone 0.05 μg/mL",83%
poly(L-lysine) G2 [G2 dendrimer],membrane rigidity (membrane fluidity) vs control,[1],significantly decreased
same,inhibition of C. acnes proliferation compared with linear polylysine,C. acnes,more effective than linear polylysine
same,TLR2 overexpression induced by C. acnes,TLR2,complete inhibition
same,change in biomass density in the biofilm,[2],−50%
same,change in thickness of the biofilm,[2],−48%
same,"management of IL-8 production following IL1-α stimulation, acetate vs chloride or carbonate counter-anions",IL-8; dermal fibroblasts in vitro,more effective
same,keratolytic effect (morphology of stratum corneum),[3]; 2 ppm topical,moderate separation of the upper layers of the stratum corneum
same,keratolytic effect (morphology of stratum corneum),[3]; 5 ppm topical,lower detachment
same,membrane rigidity (membrane fluidity) vs control,[4],does not exhibit any significant effect
same,inhibition of adhesion of C. acnes on keratinocyte surfaces,[5]; 2.5×10^−7 M,29%
same,inhibition of adhesion of C. acnes on keratinocyte surfaces,[5]; 5×10^−6 M,40%
same,inhibition of adhesion of C. acnes on keratinocyte surfaces,[5]; 10^−5 M,50%
same,anti-inflammatory effect compared with linear polylysine,[6],more effective than linear polylysine
same,decrease in IL1-α production compared to treatment with C. acnes,"IL1-α; 2 ppm, day 1",49%
same,decrease in IL1-α production compared to treatment with C. acnes,"IL1-α; 2 ppm, day 4",28%
same,decrease in IL1-α production compared to treatment with C. acnes,"IL1-α; 5 ppm, day 1",42%
same,decrease in IL1-α production compared to treatment with C. acnes,"IL1-α; 5 ppm, day 4",27%
same,inhibition of adhesion of C. acnes on keratinocyte surfaces,[7]; 2.5×10^−6 M,35%
same,inhibition of adhesion of C. acnes on keratinocyte surfaces,[7]; 5×10^−6 M,51%
same,inhibition of adhesion of C. acnes on keratinocyte surfaces,[7]; 10^−5M,50%
same,membrane rigidity (membrane fluidity) vs control,[8],significantly decreased
same,MIC (minimum inhibitory concentration),[9],10-20 ppm and 20 ppm
same,biomass density in the biofilm,[10],no effect
same,change in thickness of the biofilm,[10],−32%
